From ChEMBL document CHEMBL5390254, “Discovery and Optimization of Novel hDHODH Inhibitors for the Treatment of Inflammatory Bowel Disease” (J Med Chem, 2023)
Active and inactive are the calls of the source. The calls are words filed in the database; no cut-off is given here.

Tests used:
[1] = Metabolic stability in rat liver microsomes assessed as intrinsic clearance at 3 uM incubated upto 90 mins in presence of NADPH by LC-MS/MS analysis; format: ADME, Microsome; conditions: read-out: CLH
[2] = Metabolic stability in mouse liver microsomes assessed as intrinsic clearance at 3 uM incubated upto 90 mins in presence of NADPH by LC-MS/MS analysis; format: ADME, Microsome; conditions: read-out: CLH
[3] = Acute toxicity in BALB/c mouse assessed as changes in CK level in serum at 1000 mg/kg,po and measured after 14 days by Biochemistry analysis; format: organism-based; conditions: in vivo, 336 h, time 14 day
[4] = Acute toxicity in BALB/c mouse assessed as changes in ALB level in serum at 1000 mg/kg,po and measured after 14 days by Biochemistry analysis; format: organism-based; conditions: in vivo, 336 h, time 14 day
[5] = Acute toxicity in BALB/c mouse assessed as changes in RBC level in blood at 1000 mg/kg,po and measured after 14 days by hematology test; format: organism-based, Erythrocyte; conditions: in vivo, 336 h, time 14 day
Mus musculus [6] = assay: Anti-inflammatory activity against DSS-induced acute ulcerative colitis in C57BL/6 mouse model assessed as decrease in DAI score at 100 mg/kg, po QD for 6 days; format: functional, organism-based; conditions: time 6.0 day
Mus musculus [7] = assay: Anti-inflammatory activity against DSS-induced acute ulcerative colitis in C57BL/6 mouse model assessed as decrease in colon tissue damage score at 100 mg/kg, po QD for 6 days relative to DSS group; format: functional; set-up: scale not given: the % may be the effect or the level left; conditions: time 6 day
[8] = Acute toxicity in BALB/c mouse assessed as changes in UA level in serum at 1000 mg/kg,po and measured after 14 days by Biochemistry analysis; format: organism-based; conditions: in vivo, 336 h, time 14 day
[9] = Acute toxicity in BALB/c mouse assessed as changes in platelet count in blood at 1000 mg/kg,po and measured after 14 days by hematology test; format: organism-based; conditions: in vivo, 336 h, time 14 day
Mus musculus [10] = assay: Anti-inflammatory activity against DSS-induced acute ulcerative colitis in C57BL/6 mouse model assessed as decrease in IL-17 production in colon at 100 mg/kg, po QD for 6 days by ELISA; format: functional, organism-based; conditions: time 6.0 day
[11] = Acute toxicity in BALB/c mouse assessed as tissue damage in heart at 1000 mg/kg,po and measured after 14 days by hematoxylin and eosin staining based microscopy; format: organism-based; conditions: in vivo, 336 h, time 14 day
[12] = Acute toxicity in BALB/c mouse assessed as changes in TP level in serum at 1000 mg/kg,po and measured after 14 days by Biochemistry analysis; format: organism-based; conditions: in vivo, 336 h, time 14 day
[13] = 1-octanol/water partition coefficient, logP of the compound at 2 mg by UPLC analysis; format: physicochemical
[14] = Acute toxicity in BALB/c mouse assessed as changes in urea level in serum at 1000 mg/kg,po and measured after 14 days by Biochemistry analysis; format: organism-based; conditions: in vivo, 336 h, time 14 day
[15] = Acute toxicity in po dosed BALB/c mouse assessed as maximum tolerate dose; format: organism-based; conditions: in vivo
[16] = Acute toxicity in BALB/c mouse assessed as tissue damage in kidney at 1000 mg/kg,po and measured after 14 days by hematoxylin and eosin staining based microscopy; format: organism-based; conditions: in vivo, 336 h, time 14 day
[17] = Acute toxicity in BALB/c mouse assessed as changes in lymph level in blood at 1000 mg/kg,po and measured after 14 days by hematology test; format: organism-based; conditions: in vivo, 336 h, time 14 day
Mus musculus [18] = assay: Anti-inflammatory activity against DSS-induced acute ulcerative colitis in C57BL/6 mouse model assessed as decrease in body weight loss at 100 mg/kg, po QD for 6 days (Rvb= 25.6%); format: functional; set-up: scale not given: the % may be the effect or the level left; conditions: time 6 day
Mus musculus [19] = assay: Anti-inflammatory activity against DSS-induced acute ulcerative colitis in C57BL/6 mouse model assessed as decrease in IL-1beta production in colon at 100 mg/kg, po QD for 6 days by ELISA; format: functional, organism-based; conditions: time 6.0 day
[20] = Acute toxicity in BALB/c mouse assessed as changes in ALP level in serum at 1000 mg/kg,po and measured after 14 days by Biochemistry analysis; format: organism-based; conditions: in vivo, 336 h, time 14 day
[21] = Acute toxicity in BALB/c mouse assessed as changes in WBC level in blood at 1000 mg/kg,po and measured after 14 days by hematology test; format: organism-based; conditions: in vivo, 336 h, time 14 day
[22] = Metabolic stability in human liver microsomes assessed as intrinsic clearance at 3 uM incubated upto 90 mins in presence of NADPH by LC-MS/MS analysis; format: ADME, Microsome; conditions: read-out: CLH
[23] = Acute toxicity in BALB/c mouse assessed as tissue damage in spleen at 1000 mg/kg,po and measured after 14 days by hematoxylin and eosin staining based microscopy; format: organism-based; conditions: in vivo, 336 h, time 14 day
[24] = Acute toxicity in BALB/c mouse assessed as changes in hemoglobin level in blood at 1000 mg/kg,po and measured after 14 days by hematology test; format: organism-based; conditions: in vivo, 336 h, time 14 day
[25] = Acute toxicity in BALB/c mouse assessed as tissue damage in liver at 1000 mg/kg,po and measured after 14 days by hematoxylin and eosin staining based microscopy; format: organism-based; conditions: in vivo, 336 h, time 14 day
Mus musculus [26] = assay: Anti-inflammatory activity against DSS-induced acute ulcerative colitis in C57BL/6 mouse model assessed as decrease in IL-6 production in colon at 100 mg/kg, po QD for 6 days by ELISA; format: functional, organism-based; conditions: time 6.0 day
[27] = Acute toxicity in BALB/c mouse assessed as changes in CREA level in serum at 1000 mg/kg,po and measured after 14 days by Biochemistry analysis; format: organism-based; conditions: in vivo, 336 h, time 14 day
[28] = Acute toxicity in BALB/c mouse assessed as changes in AST level in serum at 1000 mg/kg,po and measured after 14 days by Biochemistry analysis; format: organism-based; conditions: in vivo, 336 h, time 14 day
[29] = Metabolic stability in human liver microsomes assessed as half life at 3 uM incubated upto 90 mins in presence of NADPH by LC-MS/MS analysis; format: ADME, Microsome
[30] = Acute toxicity in BALB/c mouse assessed as death at 1000 mg/kg,po and measured for 14 days; format: organism-based; conditions: in vivo, 336 h, time 14 day
[31] = Acute toxicity in BALB/c mouse assessed as tissue damage in lung at 1000 mg/kg,po and measured after 14 days by hematoxylin and eosin staining based microscopy; format: organism-based; conditions: in vivo, 336 h, time 14 day
[32] = Acute toxicity in BALB/c mouse assessed as changes in ALT level in serum at 1000 mg/kg,po and measured after 14 days by Biochemistry analysis; format: organism-based; conditions: in vivo, 336 h, time 14 day
[33] = Acute toxicity in BALB/c mouse assessed as changes in general health status at 1000 mg/kg,po and measured for 14 days; format: organism-based; conditions: in vivo, 336 h, time 14 day
Mus musculus [34] = assay: Anti-inflammatory activity against DSS-induced acute ulcerative colitis in C57BL/6 mouse model assessed as decrease in IL-17 mRNA expression level in colon at 100 mg/kg, po QD for 6 days by RT-PCR analysis; format: functional, organism-based; conditions: time 6.0 day
Mus musculus [35] = assay: Anti-inflammatory activity against DSS-induced acute ulcerative colitis in C57BL/6 mouse model assessed as decrease in IL-1beta mRNA expression level in colon at 100 mg/kg, po QD for 6 days by RT-PCR analysis; format: functional, organism-based; conditions: time 6.0 day
Mus musculus [36] = assay: Anti-inflammatory activity against DSS-induced acute ulcerative colitis in C57BL/6 mouse model assessed as decrease in colon length shortening at 100 mg/kg, po QD for 6 days (Rvb= 5.5cm); format: functional; conditions: time 6 day
[37] = Metabolic stability in rat liver microsomes assessed as half life at 3 uM incubated upto 90 mins in presence of NADPH by LC-MS/MS analysis; format: ADME, Microsome
[38] = Acute toxicity in BALB/c mouse assessed as changes in hematocrit level in blood at 1000 mg/kg,po and measured after 14 days by hematology test; format: organism-based; conditions: in vivo, 336 h, time 14 day
[39] = Acute toxicity in BALB/c mouse assessed as body weight loss at 1000 mg/kg,po and measured for 14 days; format: organism-based; conditions: in vivo, 336 h, time 14 day
[40] = Acute toxicity in BALB/c mouse assessed as changes in neutrophil level in blood at 1000 mg/kg,po and measured after 14 days by hematology test; format: organism-based; conditions: in vivo, 336 h, time 14 day
[41] = Acute toxicity in BALB/c mouse assessed as changes in LDH level in serum at 1000 mg/kg,po and measured after 14 days by Biochemistry analysis; format: organism-based; conditions: in vivo, 336 h, time 14 day
[42] = Metabolic stability in mouse liver microsomes assessed as half life at 3 uM incubated upto 90 mins in presence of NADPH by LC-MS/MS analysis; format: ADME, Microsome
Mus musculus [43] = assay: Anti-inflammatory activity against DSS-induced acute ulcerative colitis in C57BL/6 mouse model assessed as decrease in IL-6 mRNA expression level in colon at 100 mg/kg, po QD for 6 days by RT-PCR analysis; format: functional, organism-based; conditions: time 6.0 day

## Fc1cccc(Cl)c1Cn1cc(-c2ncc(C3CC3)cn2)c2cccnc21
[1]
  CLint scaled at 3 µM: 150 mL/min/kg
[2]
  CLint scaled at 3 µM: 693 mL/min/kg
[3]
  Activity: Non-Toxic
[4]
  Activity: Non-Toxic
[5]
  Activity: Non-Toxic
Mus musculus [6]
  Activity: Active
Mus musculus [7]
  Activity: 27.27%
[8]
  Activity: Non-Toxic
[9]
  Activity: Non-Toxic
Mus musculus [10]
  Activity: Active
[11]
  Activity: Non-Toxic
[12]
  Activity: Non-Toxic
[13]
  logP: 5.3
[14]
  Activity: Non-Toxic
[15]
  MTD: 1000 mg/kg
[16]
  Activity: Non-Toxic
[17]
  Activity: Non-Toxic
Mus musculus [18]
  Activity: 17.6%
Mus musculus [19]
  Activity: Active
[20]
  Activity: Non-Toxic
[21]
  Activity: Non-Toxic
[22]
  CLint scaled at 3 µM: 190 mL/min/kg
[23]
  Activity: Non-Toxic
[24]
  Activity: Non-Toxic
[25]
  Activity: Non-Toxic
Mus musculus [26]
  Activity: Active
[27]
  Activity: Non-Toxic
[28]
  Activity: Non-Toxic
[29]
  half-life at 3 µM: 9.2 min
[30]
  Activity: Non-Toxic
[31]
  Activity: Non-Toxic
[32]
  Activity: Non-Toxic
[33]
  Activity: Non-Toxic
Mus musculus [34]
  Activity: Active
Mus musculus [35]
  Activity: Active
Mus musculus [36]
  Activity: 6.1 cm
[37]
  half-life at 3 µM: 16.5 min
[38]
  Activity: Non-Toxic
[39]
  Activity: Non-Toxic
[40]
  Activity: Non-Toxic
[41]
  Activity: Non-Toxic
[42]
  half-life at 3 µM: 7.9 min
Mus musculus [43]
  Activity: Active
